Measured values as given in PMC7660650, “Chemical Starting Matter for HNF4α Ligand Discovery and Chemogenomics” (International Journal of Molecular Sciences, 2020).

Molecular target: T1, Gal4-HNF4α (human HNF4α LBD) (Homo sapiens, UniProt P41235)
T1 construct: uniprot entry: P41235-1, residues 142-377; expressed in transfected cells; host or cells: HEK293T
T1 sequence (P41235 142-377): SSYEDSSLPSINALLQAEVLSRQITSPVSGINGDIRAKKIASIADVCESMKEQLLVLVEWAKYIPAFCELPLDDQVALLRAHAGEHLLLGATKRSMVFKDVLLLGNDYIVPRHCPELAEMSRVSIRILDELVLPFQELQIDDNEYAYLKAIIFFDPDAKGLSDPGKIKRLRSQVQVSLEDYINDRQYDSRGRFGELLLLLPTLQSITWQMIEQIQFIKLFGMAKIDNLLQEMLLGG
Experiment: Hybrid Gal4-HNF4α reporter gene assay in transiently transfected HEK293T cells
Type: cell-based
Conditions: not given

Going from `Oc1cccc2cccnc12` [Prestw-Frag-2592, Oc1cccc2cccnc12] to `c1ccc2c3c([nH]c2c1)CCCC3` [Prestw-Frag-2780, C1CCc2c(C1)[nH]c1ccccc21], the “HNF4a-screening_activity_(mean_of_n=2)” value rises from 0.6969 to 0.7267.

For `CCOc1ccccc1OCC1CNCCO1` (stereo not shown) [Prestw-Frag-2992, CCOc1ccccc1OCC1CNCCO1], the “HNF4a-screening_activity_(mean_of_n=2)” value was 0.7878.

Same assay, conditions: Table S1, primary screening, 50 µM

Compared with `O=C(O)COc1ccccc1` [Prestw-Frag-2577, OC(=O)COc1ccccc1], `NC(=O)COc1ccccc1` [Prestw-Frag-2578, NC(=O)COc1ccccc1] is lower in “HNF4a-screening_activity_(mean_of_n=2)” value: 1.064 for the first, 1.034 for the second.

Going from `O=C(O)Cc1ccccc1` [Prestw-Frag-2579, OC(=O)Cc1ccccc1] to `NC(=O)Cc1ccccc1` [Prestw-Frag-2580, NC(=O)Cc1ccccc1], the “HNF4a-screening_activity_(mean_of_n=2)” value falls from 1.086 to 0.9823.

First: NC(=O)c1ccncc1 [Prestw-Frag-2587, NC(=O)c1ccncc1]
Second: CCNC(=O)c1cccnc1 [Prestw-Frag-2794, CCNC(=O)c1cccnc1]
The “HNF4a-screening_activity_(mean_of_n=2)” value of the first is lower: 0.9347 for the first, 1.068 for the second.

Compared with `Clc1cccc2ncccc12` [Prestw-Frag-2593, Clc1cccc2ncccc12], `c1ccc2nccnc2c1` [Prestw-Frag-3033, c1ccc2nccnc2c1] is higher in “HNF4a-screening_activity_(mean_of_n=2)” value: 0.9438 for the first, 0.9657 for the second.

First: OC1c2ccccc2CCc2ccccc21 [Prestw-Frag-2600, OC1c2ccccc2CCc2ccccc12]
Second: c1ccc(-n2ccc3ccccc32)cc1 [Prestw-Frag-3011, c1cc2ccccc2n1-c1ccccc1]
The “HNF4a-screening_activity_(mean_of_n=2)” value of the first is lower: 0.7017 for the first, 0.7452 for the second.

Going from `c1ccc(CCn2ccnc2)cc1` [Prestw-Frag-2608, C(Cn1ccnc1)c1ccccc1] to `c1ccc(Cn2ccnc2)cc1` [Prestw-Frag-2620, C(c1ccccc1)n1ccnc1], the “HNF4a-screening_activity_(mean_of_n=2)” value rises from 0.9707 to 0.9802.

Going from `c1ccc(C(c2ccccc2)n2cncn2)cc1` [Prestw-Frag-2645, c1ncn(n1)C(c1ccccc1)c1ccccc1] to `c1ccc(C(c2ccccc2)n2ccnc2)cc1` [Prestw-Frag-2868, c1cn(cn1)C(c1ccccc1)c1ccccc1], the “HNF4a-screening_activity_(mean_of_n=2)” value falls from 0.9885 to 0.7887.

Going from `N#CC1(c2ccc(F)cc2)CCCCC1` [Prestw-Frag-2647, Fc1ccc(cc1)C1(CCCCC1)C#N] to `Oc1cccc(CN2CCCCC2)c1` [Prestw-Frag-2809, Oc1cccc(CN2CCCCC2)c1], the “HNF4a-screening_activity_(mean_of_n=2)” value rises from 0.99 to 1.12.

Going from `CC1(c2ccccc2)NC(=O)NC1=O` (stereo not shown) [Prestw-Frag-2652, CC1(NC(=O)NC1=O)c1ccccc1] to `CS(=O)(=O)Nc1ccccc1` [Prestw-Frag-2755, CS(=O)(=O)Nc1ccccc1], the “HNF4a-screening_activity_(mean_of_n=2)” value rises from 0.789 to 0.9874.

First: Cc1ccc(C#N)c(=O)[nH]1 [Prestw-Frag-2669, Cc1ccc(C#N)c(=O)[nH]1]
Second: Cc1ccc(N)c(C#N)c1 [Prestw-Frag-3060, Cc1ccc(N)c(c1)C#N]
The “HNF4a-screening_activity_(mean_of_n=2)” value of the first is higher: 0.9816 for the first, 0.8715 for the second.

Going from `O=C1CCCc2[nH]ccc21` [Prestw-Frag-2675, O=C1CCCc2[nH]ccc12] to `O=C1CCc2ccc(O)cc2N1` [Prestw-Frag-2854, Oc1ccc2CCC(=O)Nc2c1], the “HNF4a-screening_activity_(mean_of_n=2)” value rises from 1.012 to 1.013.

Compared with `O=C(O)CCc1ncc(-c2ccccc2)o1` [Prestw-Frag-2693, OC(=O)CCc1ncc(o1)-c1ccccc1], `Cc1ccccc1Nc1ncccc1C(=O)O` [Prestw-Frag-2806, Cc1ccccc1Nc1ncccc1C(O)=O] is higher in “HNF4a-screening_activity_(mean_of_n=2)” value: 0.8237 for the first, 1.238 for the second.

Compared with `Cc1nc(-c2ccccc2)c(-c2ccccc2)o1` [Prestw-Frag-2695, Cc1nc(c(o1)-c1ccccc1)-c1ccccc1], `Nc1nc(N)nc(-c2ccccc2)n1` [Prestw-Frag-3190, Nc1nc(N)nc(n1)-c1ccccc1] is lower in “HNF4a-screening_activity_(mean_of_n=2)” value: 1.374 for the first, 0.8184 for the second.

First: COc1ccc(C(C)=O)c(O)c1 [Prestw-Frag-2701, COc1ccc(C(C)=O)c(O)c1]
Second: COc1ccc(CC(=O)O)cc1 [Prestw-Frag-2960, COc1ccc(CC(O)=O)cc1]
The “HNF4a-screening_activity_(mean_of_n=2)” value of the first is higher: 1.01 for the first, 0.9108 for the second.

First: Oc1ccccc1C1CCCC1 [Prestw-Frag-2706, Oc1ccccc1C1CCCC1]
Second: OC1CCN(c2ccccc2F)CC1 [Prestw-Frag-2803, OC1CCN(CC1)c1ccccc1F]
The “HNF4a-screening_activity_(mean_of_n=2)” value of the first is lower: 0.8607 for the first, 1.103 for the second.

Going from `CN1C(=O)CCC1=O` [Prestw-Frag-2713, CN1C(=O)CCC1=O] to `COc1ccc2c(c1)CCCC2` [Prestw-Frag-3188, COc1ccc2CCCCc2c1], the “HNF4a-screening_activity_(mean_of_n=2)” value falls from 0.9037 to 0.8877.

First: N=C(N)NC(=N)Nc1ccc(Cl)cc1 [Prestw-Frag-2722, NC(=N)NC(=N)Nc1ccc(Cl)cc1]
Second: OCCc1ccc(Cl)cc1 [Prestw-Frag-3062, OCCc1ccc(Cl)cc1]
The “HNF4a-screening_activity_(mean_of_n=2)” value of the first is lower: 0.8665 for the first, 0.9659 for the second.

Compared with `CCCOc1ccc(C(=O)OCC)cc1N` [Prestw-Frag-2724, CCCOc1ccc(cc1N)C(=O)OCC], `CCN(CC)CCNC(=O)c1ccc(N)c(Cl)c1` [Prestw-Frag-3120, CCN(CC)CCNC(=O)c1ccc(N)c(Cl)c1] is lower in “HNF4a-screening_activity_(mean_of_n=2)” value: 1.372 for the first, 1.18 for the second.

First: O=c1ccn([C@@H]2C[C@H](O)[C@@H](CO)O2)c(=O)[nH]1 [Prestw-Frag-2769, OC[C@H]1O[C@@H](C[C@@H]1O)n1ccc(=O)[nH]c1=O]
Second: OCc1ccc(F)cc1F [Prestw-Frag-3100, OCc1ccc(F)cc1F]
The “HNF4a-screening_activity_(mean_of_n=2)” value of the first is lower: 0.8958 for the first, 0.9757 for the second.

Going from `CCN(CC)CCOC(=O)C1(c2ccccc2)CCCC1` [Prestw-Frag-2774, CCN(CC)CCOC(=O)C1(CCCC1)c1ccccc1] to `CCN(CC)C(=O)/C=C/c1ccccc1` [Prestw-Frag-3088, CCN(CC)C(=O)\C=C\c1ccccc1], the “HNF4a-screening_activity_(mean_of_n=2)” value falls from 1.226 to 0.9663.

First: c1cc2c(cc1OC[C@H]1CCCNC1)OCO2 [Prestw-Frag-2789, C(Oc1ccc2OCOc2c1)[C@H]1CCCNC1]
Second: c1ccc(C2CNCCO2)cc1 (stereo not shown) [Prestw-Frag-2958, C1COC(CN1)c1ccccc1]
The “HNF4a-screening_activity_(mean_of_n=2)” value of the first is higher: 1.15 for the first, 1.039 for the second.

First: COC(=O)c1c[nH]c2ccccc12 [Prestw-Frag-2799, COC(=O)c1c[nH]c2ccccc12]
Second: CCOc1ccccc1O [Prestw-Frag-2995, CCOc1ccccc1O]
The “HNF4a-screening_activity_(mean_of_n=2)” value of the first is higher: 0.9379 for the first, 0.8201 for the second.

Going from `O=C(O)c1cccnc1Nc1cccc(Cl)c1` [Prestw-Frag-2807, OC(=O)c1cccnc1Nc1cccc(Cl)c1] to `Nc1cccc(Nc2ncccn2)c1` [Prestw-Frag-2935, Nc1cccc(Nc2ncccn2)c1], the “HNF4a-screening_activity_(mean_of_n=2)” value falls from 1.808 to 1.004.

Compared with `NCCCOc1cccc(CN2CCCCC2)c1` [Prestw-Frag-2808, NCCCOc1cccc(CN2CCCCC2)c1], `Fc1cccnc1N1CCCC1` [Prestw-Frag-3150, Fc1cccnc1N1CCCC1] is lower in “HNF4a-screening_activity_(mean_of_n=2)” value: 1.297 for the first, 1.041 for the second.

First: CCNC(=O)c1ccc(Cl)cc1 [Prestw-Frag-2818, CCNC(=O)c1ccc(Cl)cc1]
Second: O=C(c1ccccc1)c1ccc(Br)cc1 [Prestw-Frag-2912, Brc1ccc(cc1)C(=O)c1ccccc1]
The “HNF4a-screening_activity_(mean_of_n=2)” value of the first is lower: 0.8348 for the first, 0.975 for the second.

Compared with `Nc1cccc(O)c1` [Prestw-Frag-2826, Nc1cccc(O)c1], `c1ccc2c(c1)CCCN2` [Prestw-Frag-3137, C1CNc2ccccc2C1] is lower in “HNF4a-screening_activity_(mean_of_n=2)” value: 1.072 for the first, 0.9914 for the second.

Compared with `C[C@@H](O)c1cc(C(F)(F)F)cc(C(F)(F)F)c1` [Prestw-Frag-2849, C[C@@H](O)c1cc(cc(c1)C(F)(F)F)C(F)(F)F], `Oc1cc(Cl)c(Cl)cc1Cl` [Prestw-Frag-2898, Oc1cc(Cl)c(Cl)cc1Cl] is higher in “HNF4a-screening_activity_(mean_of_n=2)” value: 1.171 for the first, 5.433 for the second.

Compared with `Clc1cccc(N2CCNCC2)c1Cl` [Prestw-Frag-2853, Clc1cccc(N2CCNCC2)c1Cl], `CN1CCN(S(=O)(=O)c2ccccc2)CC1` [Prestw-Frag-3012, CN1CCN(CC1)S(=O)(=O)c1ccccc1] is lower in “HNF4a-screening_activity_(mean_of_n=2)” value: 1.239 for the first, 0.8018 for the second.

First: c1ccc(-c2nnn[nH]2)cc1 [Prestw-Frag-2887, c1ccc(cc1)-c1nnn[nH]1]
Second: CC(C)(C)OC(=O)/C=C/c1ccccc1 [Prestw-Frag-2947, CC(C)(C)OC(=O)\C=C\c1ccccc1]
The “HNF4a-screening_activity_(mean_of_n=2)” value of the first is lower: 0.9719 for the first, 1.247 for the second.

First: NCCCCN1CCN(c2ncccn2)CC1 [Prestw-Frag-2921, NCCCCN1CCN(CC1)c1ncccn1]
Second: O=C1c2ccc(Cl)cc2CCc2cccnc21 [Prestw-Frag-3073, Clc1ccc2c(CCc3cccnc3C2=O)c1]
The “HNF4a-screening_activity_(mean_of_n=2)” value of the first is higher: 1.125 for the first, 0.9858 for the second.

First: CCc1ccc(CCO)nc1 [Prestw-Frag-2968, CCc1ccc(CCO)nc1]
Second: CNS(=O)(=O)Cc1ccc2[nH]cc(CCN)c2c1 [Prestw-Frag-3017, CNS(=O)(=O)Cc1ccc2[nH]cc(CCN)c2c1]
The “HNF4a-screening_activity_(mean_of_n=2)” value of the first is higher: 1.216 for the first, 0.7522 for the second.

First: Nc1nc2c(s1)CCCC2 [Prestw-Frag-2972, Nc1nc2CCCCc2s1]
Second: CCCCc1nc(Cl)c(CO)[nH]1 [Prestw-Frag-3114, CCCCc1nc(Cl)c(CO)[nH]1]
The “HNF4a-screening_activity_(mean_of_n=2)” value of the first is higher: 1.123 for the first, 0.9053 for the second.

First: O=C1c2nccnc2C(O)N1c1ccc(Cl)cn1 (stereo not shown) [Prestw-Frag-3046, OC1N(C(=O)c2nccnc12)c1ccc(Cl)cn1]
Second: O=C(O)/C=C/c1cnc[nH]1 [Prestw-Frag-3090, OC(=O)\C=C\c1cnc[nH]1]
The “HNF4a-screening_activity_(mean_of_n=2)” value of the first is lower: 0.8017 for the first, 1.054 for the second.

In the case of `OCCn1cncn1` [Prestw-Frag-3101, OCCn1cncn1], the “HNF4a-screening_activity_(mean_of_n=2)” value is reported as 0.9898.
